Results taken from ChEMBL document CHEMBL5260804 (ACS Med Chem Lett, 2017).

How the values were obtained:
[1] = target: Matrix protein 2 (Influenza A virus) (UniProt P06821); settings: A/Udorn/72 (H3N2)
Description: Binding affinity to C-terminal amidated influenza A virus A/Udorn/72 (H3N2) M2 transmembrane domain (22 to 46 residues) in DPC micelles at pH 8 assessed as gibbs free energy change by ITC analysis

[2] = test system: Influenza A virus; test: Antiviral activity against amantadine-sensitive influenza A virus A/Udorn/72 (H3N2) infected in MDCK cells assessed as inhibition of virus-induced cytopathic effect incubated for 48 hrs by crystal violet/neutral red staining based assay; format: functional, organism-based
[3] = target: Matrix protein 2 (Influenza A virus) (UniProt P06821); test: Inhibition of full length influenza A virus A/Udorn/72 (H3N2) M2 expressed in Xenopus laevis oocytes assessed as inhibition of channel current at 100 uM measured after 5 mins by two-electrode voltage clamp assay relative to control; format: cell-based; settings: Oocyte
[4] = target: Matrix protein 2 (Influenza A virus) (UniProt P06821); test: Binding affinity to C-terminal amidated influenza A virus A/Udorn/72 (H3N2) M2 transmembrane domain (22 to 46 residues) in DPC micelles at pH 8 assessed as change in entropy by ITC analysis
[5] = target: Matrix protein 2 (Influenza A virus) (UniProt P06821); settings: A/Udorn/72 (H3N2); remark: listed apart in the source
Description: Binding affinity to C-terminal amidated influenza A virus A/Udorn/72 (H3N2) M2 transmembrane domain (22 to 46 residues) in DPC micelles at pH 8 assessed as change in enthalpy by ITC analysis

[6] = target: Matrix protein 2 (Influenza A virus) (UniProt P06821); test: Inhibition of full length influenza A virus A/Udorn/72 (H3N2) M2 expressed in Xenopus laevis oocytes assessed as inhibition of channel current at 100 uM measured after 2 mins by two-electrode voltage clamp assay relative to control; format: cell-based; settings: Oocyte
[7] = target: Matrix protein 2 (Influenza A virus, UniProt P06821)
Sequence of Matrix protein 2 (P06821 whole entry): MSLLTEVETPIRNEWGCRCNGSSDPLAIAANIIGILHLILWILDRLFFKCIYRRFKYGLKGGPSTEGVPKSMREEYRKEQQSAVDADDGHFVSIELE
Description: Binding affinity to C-terminal amidated influenza A virus A/Udorn/72 (H3N2) M2 transmembrane domain (22 to 46 residues) in DPC micelles at pH 8 assessed as dissociation constant by ITC analysis

Sequence of Matrix protein 2 (Influenza A virus) (P06821 whole entry, the tested form may be a part): as the sequence (P06821 whole entry) above

| Compound | deltaG [1] | IC50 [2] | inhibition [3] | -TdeltaS [4] | deltaH [5] | inhibition [6] | Kd [7] |
| --- | --- | --- | --- | --- | --- | --- | --- |
| NC12CC3CC(CC(C3)C1)C2 [AMANTADINE] | -7.77 kcal/mol | 330 nM | 95% | -1.11 kcal/mol | -6.66 kcal/mol |  |  |
| C[C@@H](N)C12CC3CC(CC(C3)C1)C2 | -8.97 kcal/mol | 50 nM | 95% | -1.42 kcal/mol | -7.54 kcal/mol | 93% |  |
| CC(N)C12CC3CC(CC(C3)C1)C2 (racemic) [RIMANTADINE] |  | 50 nM | 96% | -1.04 kcal/mol | -7.6 kcal/mol | 96% |  |
| C[C@H](N)C12CC3CC(CC(C3)C1)C2 |  | 60 nM | 96% | -1.15 kcal/mol | -7.73 kcal/mol | 95% |  |
| CC(C)(N)C12CC3CC(CC(C3)C1)C2 | -9.3 kcal/mol | 40 nM | 96% | -5.12 kcal/mol | -4.19 kcal/mol | 90% | 130 nM |
